Converted amounts (≈) assume the structure as drawn. Structures can show the parent of a compound that is named as a salt. Where two headings read alike, the source gives them in different places.
Legend:
Assay type in all cases: cell-based
[1] = tested on: Aspergillus fumigatus T33439 (ATCC MYA-3626); test: Fungal MIC Protocol, Aspergillus fumigatus; conditions: Aspergillus fumigatus, read-out: MIC Aspergillus fumigatus 3626
Method in brief: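 This broth microdilution MIC test used RPMI/MOPS medium at pH 7.0 with glucose. Compounds were diluted from DMSO stock to 200 ug/mL and serially diluted ten times in 96-well round bottom plates. Equal volumes of compound and Aspergillus spore suspension at OD530 0.002 were combined, with controls of compound without cells and spores without compound. Plates were bagged and incubated at 35° C. for 48 hours.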

[2] = tested on: Fusarium solani (ATCC 58877); test: Fungal MIC Protocol, Fusarium solani; conditions: Fusarium solani, read-out: MIC Fusarium solani 58877
Method in brief: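 Broth microdilution MIC test against Fusarium solani in RPMI/MOPS medium at pH 7.0. Compounds from DMSO stock were diluted to 200 ug/mL, then serially diluted ten times and plated in duplicate at 50 μl per well. 50 ul of spore suspension at OD530 0.005 was added. Controls had compound without cells and spores without compound. Plates were mixed gently, bagged, and incubated at 35° C. for 48 hours.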

[3] = tested on: Mucor circinelloides 1463(62) (ATCC 26759); test: Fungal MIC Protocol, Mucor circinelloides (MIC-50); conditions: Mucor circinelloides, read-out: MIC-50 Mucorales circinelloides 26579
Method in brief: (§1)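 Harvested spores, adjusted by OD530 to about 2×10^4 cfu/mL in RPMI/MOPS pH 7.0, are mixed with ten duplicate serial dilutions of compound. Incubation runs 48 h at 35° C before visual scoring of the lowest concentration inhibiting growth >50%.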

[4] = tested on: Mucor ramosissimus 057718 (ATCC 90286); test: Fungal MIC Protocol, Mucor ramosissimus (MIC-50); conditions: Mucor ramosissimus, read-out: MIC-50 Mucorales ramosissimus 90286
Method in brief: as §1

[5] = tested on: Aspergillus flavus AFL1 (ATCC MYA-3631); test: Fungal MIC Protocol, Aspergillus flavus; conditions: Aspergillus flavus, read-out: MIC Aspergillus flavus 3631
Method in brief: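 The MIC against Aspergillus flavus was measured by broth microdilution in RPMI/MOPS medium at pH 7.0. Compounds were diluted to 200 ug/mL from DMSO stocks, then ten serial dilutions were tested in duplicate in round bottom 96-well plates. Spores adjusted to a final OD530 of 0.002 were added, with no-cell and no-compound control wells, and plates were incubated 48 hours at 35° C.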

[6] = tested on: Candida albicans GDH2346; test: Candida Minimal Inhibitory Concentration (MIC); conditions: Candida albicans, read-out: MIC-50 Candida albicans GDH2346
Method in brief: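 Twofold serial dilutions from 200 μg/mL in RPMI 1640/MOPS with glucose, pH 7.0, tested in duplicate against yeast from an OD600 1.0 suspension diluted 1:1000. Incubated at 35° C; OD600 read at 24 and 48 h.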

[7] = tested on: Fusarium falciforme FS1 (ATCC MYA-3636); test: Fungal MIC Protocol, Fusarium falciforme; conditions: Fusarium falciforme, read-out: MIC Fusarium falciforme 3636
Method in brief: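 MIC against Fusarium falciforme was determined by broth microdilution in RPMI/MOPS medium containing glucose. Compounds started at 200 ug/mL and were serially diluted ten times, then combined with harvested spores adjusted to an OD530 of 0.005. Controls held compound without cells and spores without compound. Plates were bagged and incubated at 35° C. for 48 hours.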

[8] = 100% growth inhibition at 48 hours
[9] = ATCC58877, 100% growth inhibition at 48 hours
[10] = ATCC26759, 50% growth inhibition at 48 hours
[11] = ATCC90286, 50% growth inhibition at 48 hours
[12] = GDH2346, 50% growth inhibition at 48 hours

MIC [1, 8] [µg/mL] | MIC [2, 9] [µg/mL] | MIC50 [3, 10] [µg/mL] | MIC50 [4, 11] [µg/mL] | MIC [5, 8] [µg/mL] | MIC50 [6, 12] [µg/mL] | MIC [7, 8] [µg/mL] | Compound | MIC ([1]; 48 h) [µg/mL] | MIC ([2]; ATCC58877, 48 h) [µg/mL] | MIC50 ([3]; ATCC26759, 48 h) [µg/mL] | MIC50 ([4]; ATCC90286, 48 h) [µg/mL] | MIC ([5]; 48 h) [µg/mL] | MIC50 ([6]; GDH2346, 48 h) [µg/mL] | MIC ([7]; 48 h) [µg/mL]
1.56 (≈ 3.25 µM) | 0.78 (≈ 1.62 µM) | 0.39 (≈ 0.811 µM) | 3.13 (≈ 6.51 µM) | 0.39 (≈ 0.811 µM) | 0.5 (≈ 1.04 µM) | < 0.1 | Cn1nc(-c2ccc(C3=CCN(C(=N)N)CC3)cc2)cc1-c1ccc(C2=CCN(C(=N)N)CC2)cc1 [Example 54, 4,4′-(4,4′-(1-Methyl-1H-pyrazole-3,5-diyl)bis(4,1-phenylene)) bis(5,6-dihydropyridine-1(2H)-carboximidamide)] | – | – | – | – | – | – | –
< 0.1 | < 0.1 | 0.39 (≈ 0.712 µM) | 3.13 (≈ 5.72 µM) | 0.2 (≈ 0.365 µM) | 0.2 (≈ 0.365 µM) | < 0.1 | N=C(N)N1CC=C(c2ccc(-c3nnc(-c4ccc(C5=CCN(C(=N)N)CC5)cc4F)n3CCO)c(F)c2)CC1 [Example 57, 4,4′-(4,4′-(4-(2-Hydroxyethyl)-4H-1,2,4-triazole-3,5-diyl)bis(3-fluoro-4,1-phenylene))bis(5,6-dihydropyridine-1(2H)-carboximidamide)] | – | – | – | – | – | – | –
– | – | – | – | – | – | – | COCCn1c(-c2ccc(C3=CCN(C(=N)N)CC3)cc2)nnc1-c1ccc(C2=CCN(C(=N)N)CC2)cc1 [Example 67, 4-(4-{5-[4-(1-carbamimidoyl-1,2,3,6-tetrahydropyridin-4-yl)phenyl]-4-(2-methoxyethyl)-4H-1,2,4-triazol-3-yl}phenyl)-1,2,3,6-tetrahydropyridine-1-carboximidamide trifluoroacetate] | 0.1 | 0.05 | 0.39 | 1.56 | 0.1 | 0.2 | 0.05
– | – | – | – | – | – | – | COCCn1c(-c2ccc(C3=CCN(C(=N)N)CC3)cc2F)nnc1-c1ccc(C2=CCN(C(=N)N)CC2)cc1F [Example 68, 4-(4-{5-[4-(1-carbamimidoyl-1,2,3,6-tetrahydropyridin-4-yl)-2-fluorophenyl]-4-(2-methoxyethyl)-4H-1,2,4-triazol-3-yl}-3-fluorophenyl)-1,2,3,6-tetrahydropyridine-1-carboximidamide trifluoroacetate] | 0.1 | < 0.1 | 0.39 | 0.78 | < 0.1 | 0.2 | < 0.1
– | – | – | – | – | – | – | N=C(N)N1CC=C(c2ccc(-c3nnc(-c4ccc(C5=CCN(C(=N)N)CC5)cc4)n3C3CCCC3)cc2)CC1 [Example 69, 4-(4-{5-[4-(1-carbamimidoyl-1,2,3,6-tetrahydropyridin-4-yl)phenyl]-4-cyclopentyl-4H-1,2,4-triazol-3-yl}phenyl)-1,2,3,6-tetrahydropyridine-1-carboximidamide trifluoroacetate] | 0.1 | < 0.1 | 0.39 | 0.39 | 0.2 | 0.39 | < 0.1
0.1 | 0.05 | 1.56 | 12.5 | 0.1 | 0.3 | 0.05 | Cl.N=C(N)N1CC=C(c2ccc(-c3nnc(-c4ccc(C5=CCN(C(=N)N)CC5)cc4)n3CCO)cc2)CC1 [Example 70, 4-(4-{5-[4-(1-carbamimidoyl-1,2,3,6-tetrahydropyridin-4-yl)phenyl]-4-(2-hydroxyethyl)-4H-1,2,4-triazol-3-yl}phenyl)-1,2,3,6-tetrahydropyridine-1-carboximidamide hydrochloride] | – | – | – | – | – | – | –
– | – | – | – | – | – | – | N=C(N)N1CC=C(c2ccc(-c3nnc(-c4ccc(C5=CCN(C(=N)N)CC5)cc4F)n3CCCO)c(F)c2)CC1 [Example 73, 4-(4-{5-[4-(1-carbamimidoyl-1,2,3,6-tetrahydropyridin-4-yl)-2-fluorophenyl]-4-(3-hydroxypropyl)-4H-1,2,4-triazol-3-yl}-3-fluorophenyl)-1,2,3,6-tetrahydropyridine-1-carboximidamide hydrochloride] | 0.1 | 0.05 | 1.56 | 3.13 | 0.2 | 0.2 | 0.1
– | – | – | – | – | – | – | Cn1c(-c2ccc(C3=CCN(C(=N)N)CC3)cc2)nnc1-c1ccc(C2=CCN(C(=N)N)CC2)cc1F [Example 78, 4-(4-{5-[4-(1-carbamimidoyl-1,2,3,6-tetrahydropyridin-4-yl)-2-fluorophenyl]-4-methyl-4H-1,2,4-triazol-3-yl}phenyl)-1,2,3,6-tetrahydropyridine-1-carboximidamide trifluoroacetate] | 0.05 | 0.1 | 0.2 | 0.78 | 0.1 | 0.2 | 0.05
0.1 | 0.1 | 0.2 | 0.39 | 0.1 | 0.1 | 0.05 | Cn1c(-c2ccc(C3=CCN(C(=N)N)CC3)c(F)c2)nnc1-c1ccc(C2=CCN(C(=N)N)CC2)cc1F [Example 79, 4-(4-{5-[4-(1-carbamimidoyl-1,2,3,6-tetrahydropyridin-4-yl)-2-fluorophenyl]-4-methyl-4H-1,2,4-triazol-3-yl}-2-fluorophenyl)-1,2,3,6-tetrahydro pyridine-1-carboximidamide trifluoroacetate] | – | – | – | – | – | – | –
– | – | – | – | – | – | – | N=C(N)N1CC=C(c2ccc(-c3nnc(-c4ccc(C5=CCN(C(=N)N)CC5)cc4F)n3CCO)cc2)CC1 [Example 82, 4-(4-{5-[4-(1-carbamimidoyl-1,2,3,6-tetrahydropyridin-4-yl)-2-fluorophenyl]-4-(2-hydroxyethyl)-4H-1,2,4-triazol-3-yl}phenyl)-1,2,3,6-tetrahydropyridine-1-carboximidamide hydrochloride] | 0.1 | 0.05 | 0.39 | 1.56 | 0.2 | 0.2 | 0.05
– | – | – | – | – | – | – | N=C(N)N1CC=C(c2ccc(-c3nnc(-c4ccc(C5=CCN(C(=N)N)CC5)cc4F)n3CC(F)(F)F)c(F)c2)CC1 [Example 84, 4-(4-{5-[4-(1-carbamimidoyl-1,2,3,6-tetrahydropyridin-4-yl)-2-fluorophenyl]-4-(2,2,2-trifluoroethyl)-4H-1,2,4-triazol-3-yl}-3-fluorophenyl)-1,2,3,6-tetrahydropyridine-1-carboximidamide hydrochloride] | 0.2 | 0.05 | 0.39 | 0.78 | 0.39 | 0.2 | 0.1
– | – | – | – | – | – | – | Cn1c(-c2cc(F)c(C3=CCN(C(=N)N)CC3)c(F)c2)nnc1-c1ccc(C2=CCN(C(=N)N)CC2)cc1F [Example 85, 4-(4-{5-[4-(1-carbamimidoyl-1,2,3,6-tetrahydropyridin-4-yl)-2-fluorophenyl]-4-methyl-4H-1,2,4-triazol-3-yl}-2,6-difluorophenyl)-1,2,3,6-tetrahydropyridine-1-carboximidamide trifluoroacetate] | 0.024 | < 0.012 | 0.2 | 0.78 | 0.024 | 0.1 | < 0.012
